{
  "source": "patent US20210085743A1",
  "about": "“SARRACENIA-BASED TOPICAL COMPOSITIONS AND METHODS OF USE THEREOF” (Aubio Life Sciences, LLC, priority 2019, published 2021)",
  "key": {"mycobacteria": {"system": "mycobacteria", "conditions": "from methanolic extracts of Sarracenia purpurea; cited from earlier work"}, "[1]": {"system": "cancer cells including melanoma", "conditions": "various types of cancer cells including melanoma; cited from earlier work"}, "THP-1 cells": {"system": "THP-1 cells", "test": "TLR agonist-induced IL-8 and TNF-α release (ELISA) in THP-1 cells", "type": "cell-based, human", "conditions": "control wells, 24 h", "procedure": "Naïve THP-1 cells were exposed for 24 to the TLR3 agonist poly(I:C) (100 μg/ml), to the TLR7/8 agonist imidazoquinoline (1 μg/m1), to the TLR9 agonist Class A CpG oligonucleotide 5 μM, and to LPS from Escherichia coli serotype 0127:B8 10 ng/ml in the presence or absence of three not cytotoxic concentrations of the extract. IL-8 and TNF-α were measured by ELISA as reference cytokines. Three independent experiments will be conducted. A statistically significant difference versus control cells was considered relevant.\nNaïve THP-1 cells were exposed for 24 to poly(I:C) 100 μg/ml, imidazoquinoline (Imid) 1 μg/ml, or LPS 10 ng/ml in the presence or absence of three concentrations of the extract 0.1, 0.5 and 1.0 mg/ml). IL-8 release was measured by ELISA.\nNaïve THP-1 cells were exposed for 24 to poly(I:C) 100 μg/ml, imidazoquinoline (Imid) 1 μg/ml, or LPS 10 ng/ml in the presence or absence of three concentrations of the extract 0.1, 0.5 and 1.0 mg/ml). TNF-α release was measured by ELISA."}, "herpes": {"system": "herpes", "conditions": "guinea pig, topical, as infrequently as once weekly; cited from earlier work"}, "[2]": {"system": "Reconstructed human epithelium (RhE)", "test": "MTT cell viability in SDS-damaged reconstructed human epithelium", "type": "cell-based", "conditions": "SDS 0.15% for 1 h, MTT 24 h later", "experimental": "(§1) Reconstructed human epithelium (RhE) was damaged by exposure to SDS 0.15% for 1 h, then 25 μL of the final Sarracenia formulation (Gel B) was applied. Cell viability by the MTT assay (FIG. 1), and cytokine release, specifically, IL-1α, IL-6, IL-8 and G-CSF release measured using ELISA (FIG. 2), were evaluated 24 h later. Each treatment was run in triplicate. A statistically significant (Tukey's multiple comparison test) recovery in cell viability and cytokine release compared to SDS treated inserts was considered as indicator of repair capacity.\nEach value represents the mean±SD, n=3. **p<0.01 vs control. The dotted line is set at the level of cytotoxicity obtained following SDS damage.\nFIG. 1 (legend): Sarracenia extract formulation improve cellular viability in a skin irritant model. The results obtained on cell viability (MTT assay) are reported. Each value represents the mean±SD, n=3. Statistical analysis was performed with Tukey's multiple comparison test with **p<0.01 vs Control. The dotted line is set at the level of cytotoxicity obtained following SDS damage."}, "[3]": {"system": "Reconstructed human epithelium (RhE)", "test": "Cytokine release (ELISA) in SDS-damaged reconstructed human epithelium", "type": "cell-based", "conditions": "SDS vs untreated control group", "experimental": "as §1, with “capacity. FIG. 2 (legend): Evaluation of cytokine production. Each value represents the mean±SD, n=3. Statistical analysis was performed with Tukey's multiple comparison test with *p<0.05 vs Control and § vs SDS treated group.” for “capacity.”"}},
  "data": [
    {"compound": "C[C@H]1[C@H](C)CC[C@]2(C(=O)O)CC[C@]3(C)C(=CC[C@@H]4[C@@]5(C)CC[C@H](O)C(C)(C)[C@@H]5CC[C@]43C)[C@H]12", "note": "[ursolic acid]", "values": [
      {"measurement": "antimycobacterial activity", "setting": "mycobacteria", "result": "responsible for the antimycobacterial activity"}
    ]},
    {"compound": "C=C(C)[C@@H]1CC[C@]2(C)CC[C@]3(C)[C@H](CC[C@@H]4[C@@]5(C)CC[C@H](O)C(C)(C)[C@@H]5CC[C@]43C)[C@@H]12", "note": "[lupeol]", "values": [
      {"measurement": "anti-tumor activity", "setting": "[1]", "result": "anti-tumor activity"}
    ]},
    {"compound": "C=C(C)[C@@H]1CC[C@]2(C=O)CC[C@]3(C)[C@H](CC[C@@H]4[C@@]5(C)CC[C@H](O)C(C)(C)[C@@H]5CC[C@]43C)[C@@H]12", "note": "[betulinaldehyde]", "values": [
      {"measurement": "antimycobacterial activity", "setting": "mycobacteria", "result": "responsible for the antimycobacterial activity"}
    ]},
    {"compound": "C=C(C)[C@@H]1CC[C@]2(CO)CC[C@]3(C)[C@H](CC[C@@H]4[C@@]5(C)CC[C@H](O)C(C)(C)[C@@H]5CC[C@]43C)[C@@H]12", "note": "[betulin]", "values": [
      {"measurement": "anti-tumor activity", "setting": "[1]", "result": "anti-tumor activity"}
    ]},
    {"compound": "Poly(I:C)", "values": [
      {"measurement": "IL-8 release by TLR agonist alone", "setting": "THP-1 cells", "result": "induced"}
    ]},
    {"compound": "CCOCc1nc2c(N)nc3ccccc3c2n1CC(C)(C)O", "note": "[Resiquimod, 4-amino-2-ethoxymethyl-α,α-dimethyl-1H-imidazo [4,5-c]quinoline-1-ethanol]", "values": [
      {"measurement": "recurrences of herpes after therapy", "setting": "herpes", "result": "reduces recurrences of herpes"}
    ]},
    {"compound": "CCCCCCCCCCCCOS(=O)(=O)[O-].[Na+]", "note": "[SDS]", "values": [
      {"measurement": "cell viability after SDS damage", "setting": "[2]", "result": "below 50%"},
      {"measurement": "IL-1α release", "setting": "[3]", "result": "increase"},
      {"measurement": "IL-8 release", "setting": "[3]", "result": "increase"}
    ]},
    {"compound": "c1cnc2c(c1)ccc1nc[nH]c12", "note": "[imidazoquinoline]", "values": [
      {"measurement": "IL-8 release by TLR agonist alone", "setting": "THP-1 cells", "result": "induced"}
    ]}
  ]
}
